Results taken from article PMC4858680, “A platinum-based hybrid drug design approach to circumvent acquired resistance to molecular targeted tyrosine kinase inhibitors” (Scientific Reports, 2016).
Like-named read-outs stand apart in the source and are kept apart here.

How the values were obtained:
FER = target: T1, FER (Homo sapiens, UniProt P16591); format: binding; settings: for Percent control: 10 μM
T1 construct: purchased DiscoveRx KINOMEscan

TYRO3 = target: T2, TYRO3 (Homo sapiens, UniProt Q06418); format: binding; settings: for Percent control: 10 μM
T2 construct: purchased DiscoveRx Corporation (KINOMEscan service)
T2 sequence (Q06418 41-890): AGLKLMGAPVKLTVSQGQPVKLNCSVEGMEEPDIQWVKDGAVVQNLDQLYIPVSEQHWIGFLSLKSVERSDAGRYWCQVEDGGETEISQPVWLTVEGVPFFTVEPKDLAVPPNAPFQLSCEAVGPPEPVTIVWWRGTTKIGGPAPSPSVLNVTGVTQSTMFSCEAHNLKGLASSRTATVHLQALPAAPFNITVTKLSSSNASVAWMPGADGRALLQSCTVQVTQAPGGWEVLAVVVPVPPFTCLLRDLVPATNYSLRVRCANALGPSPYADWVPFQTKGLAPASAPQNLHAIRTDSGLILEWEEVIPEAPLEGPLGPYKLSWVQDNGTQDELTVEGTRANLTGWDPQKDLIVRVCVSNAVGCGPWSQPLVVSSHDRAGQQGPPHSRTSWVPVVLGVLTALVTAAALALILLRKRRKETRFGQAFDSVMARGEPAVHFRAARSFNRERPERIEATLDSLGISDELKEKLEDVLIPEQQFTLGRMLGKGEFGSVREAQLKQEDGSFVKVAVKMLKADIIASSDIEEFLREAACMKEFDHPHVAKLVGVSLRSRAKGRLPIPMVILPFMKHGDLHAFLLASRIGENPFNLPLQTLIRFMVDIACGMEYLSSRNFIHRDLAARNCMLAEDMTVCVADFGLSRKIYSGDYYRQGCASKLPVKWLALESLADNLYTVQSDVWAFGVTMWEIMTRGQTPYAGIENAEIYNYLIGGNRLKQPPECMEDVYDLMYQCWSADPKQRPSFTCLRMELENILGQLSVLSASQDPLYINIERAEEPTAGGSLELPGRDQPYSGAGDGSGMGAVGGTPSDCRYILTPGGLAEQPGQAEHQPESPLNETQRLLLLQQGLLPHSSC

CSK = CSK (Homo sapiens, UniProt P41240); settings: 10 μM
Sequence of CSK (P41240 whole entry): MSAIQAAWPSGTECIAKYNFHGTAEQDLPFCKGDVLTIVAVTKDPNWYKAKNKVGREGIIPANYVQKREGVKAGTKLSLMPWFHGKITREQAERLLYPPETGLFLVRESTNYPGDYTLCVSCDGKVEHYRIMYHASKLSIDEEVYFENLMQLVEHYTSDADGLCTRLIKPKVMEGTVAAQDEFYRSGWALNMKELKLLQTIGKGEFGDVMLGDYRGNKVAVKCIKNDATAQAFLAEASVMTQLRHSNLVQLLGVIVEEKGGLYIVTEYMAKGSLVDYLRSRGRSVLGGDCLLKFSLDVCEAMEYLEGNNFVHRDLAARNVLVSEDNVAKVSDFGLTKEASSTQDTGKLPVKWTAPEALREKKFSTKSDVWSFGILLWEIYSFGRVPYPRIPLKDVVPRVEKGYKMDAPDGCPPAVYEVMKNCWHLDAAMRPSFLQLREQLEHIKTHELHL

DDR2 = target: T3, DDR2 (Homo sapiens, UniProt Q16832); settings: 10 μM
T3 sequence (Q16832 22-855): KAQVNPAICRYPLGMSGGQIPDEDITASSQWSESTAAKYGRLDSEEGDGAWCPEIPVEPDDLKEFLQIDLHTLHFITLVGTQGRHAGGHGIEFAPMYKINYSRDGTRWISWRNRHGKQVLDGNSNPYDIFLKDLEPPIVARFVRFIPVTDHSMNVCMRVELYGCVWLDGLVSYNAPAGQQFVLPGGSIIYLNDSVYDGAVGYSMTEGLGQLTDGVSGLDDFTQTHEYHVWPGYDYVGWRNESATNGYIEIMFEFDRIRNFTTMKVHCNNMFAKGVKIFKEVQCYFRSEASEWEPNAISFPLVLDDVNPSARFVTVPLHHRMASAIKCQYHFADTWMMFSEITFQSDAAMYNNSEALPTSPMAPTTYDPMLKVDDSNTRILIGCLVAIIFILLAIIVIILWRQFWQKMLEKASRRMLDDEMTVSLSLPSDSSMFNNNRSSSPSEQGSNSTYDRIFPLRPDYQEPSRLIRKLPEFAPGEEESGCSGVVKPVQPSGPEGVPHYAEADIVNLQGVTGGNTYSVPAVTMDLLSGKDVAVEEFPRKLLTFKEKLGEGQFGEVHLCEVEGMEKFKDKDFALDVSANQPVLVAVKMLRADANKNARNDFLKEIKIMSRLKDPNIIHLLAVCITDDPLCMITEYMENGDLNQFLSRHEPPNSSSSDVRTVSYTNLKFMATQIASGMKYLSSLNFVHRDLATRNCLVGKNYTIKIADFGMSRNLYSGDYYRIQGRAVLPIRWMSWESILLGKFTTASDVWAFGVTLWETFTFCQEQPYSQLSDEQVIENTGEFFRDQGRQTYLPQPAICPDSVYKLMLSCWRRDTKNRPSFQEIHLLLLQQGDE

FLT3(N841I) = target: T4, FLT3(N841I) (Homo sapiens, UniProt P36888, N841I)
T4 sequence (P36888 27-993 N841I): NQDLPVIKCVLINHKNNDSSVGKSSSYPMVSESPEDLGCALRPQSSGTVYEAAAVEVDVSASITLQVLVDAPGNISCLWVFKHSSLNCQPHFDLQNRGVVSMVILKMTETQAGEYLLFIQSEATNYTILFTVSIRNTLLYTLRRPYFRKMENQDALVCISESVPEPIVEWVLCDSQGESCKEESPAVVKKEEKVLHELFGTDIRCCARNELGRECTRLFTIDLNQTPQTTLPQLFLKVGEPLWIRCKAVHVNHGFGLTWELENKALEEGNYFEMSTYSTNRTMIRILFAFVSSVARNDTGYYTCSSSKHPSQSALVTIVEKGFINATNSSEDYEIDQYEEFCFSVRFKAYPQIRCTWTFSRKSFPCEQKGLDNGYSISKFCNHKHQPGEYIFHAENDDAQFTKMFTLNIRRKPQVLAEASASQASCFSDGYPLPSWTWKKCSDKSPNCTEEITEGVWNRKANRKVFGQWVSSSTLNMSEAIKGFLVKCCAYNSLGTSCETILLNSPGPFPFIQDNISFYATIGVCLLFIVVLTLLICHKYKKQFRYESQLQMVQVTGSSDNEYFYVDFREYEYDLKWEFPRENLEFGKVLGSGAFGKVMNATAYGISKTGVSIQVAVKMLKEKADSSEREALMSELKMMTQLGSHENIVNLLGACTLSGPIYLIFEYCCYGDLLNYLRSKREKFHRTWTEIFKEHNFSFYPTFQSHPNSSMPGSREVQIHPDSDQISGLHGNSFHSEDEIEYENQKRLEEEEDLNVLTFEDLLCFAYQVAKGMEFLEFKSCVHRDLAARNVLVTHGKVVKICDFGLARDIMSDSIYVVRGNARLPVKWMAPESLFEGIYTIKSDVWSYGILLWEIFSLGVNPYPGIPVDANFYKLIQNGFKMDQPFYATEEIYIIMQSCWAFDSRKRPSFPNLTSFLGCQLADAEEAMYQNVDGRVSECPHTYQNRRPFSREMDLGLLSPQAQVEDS

TRKC = TRKC (Homo sapiens, UniProt Q16288); settings: 10 μM
Sequence of TRKC (Q16288 32-839): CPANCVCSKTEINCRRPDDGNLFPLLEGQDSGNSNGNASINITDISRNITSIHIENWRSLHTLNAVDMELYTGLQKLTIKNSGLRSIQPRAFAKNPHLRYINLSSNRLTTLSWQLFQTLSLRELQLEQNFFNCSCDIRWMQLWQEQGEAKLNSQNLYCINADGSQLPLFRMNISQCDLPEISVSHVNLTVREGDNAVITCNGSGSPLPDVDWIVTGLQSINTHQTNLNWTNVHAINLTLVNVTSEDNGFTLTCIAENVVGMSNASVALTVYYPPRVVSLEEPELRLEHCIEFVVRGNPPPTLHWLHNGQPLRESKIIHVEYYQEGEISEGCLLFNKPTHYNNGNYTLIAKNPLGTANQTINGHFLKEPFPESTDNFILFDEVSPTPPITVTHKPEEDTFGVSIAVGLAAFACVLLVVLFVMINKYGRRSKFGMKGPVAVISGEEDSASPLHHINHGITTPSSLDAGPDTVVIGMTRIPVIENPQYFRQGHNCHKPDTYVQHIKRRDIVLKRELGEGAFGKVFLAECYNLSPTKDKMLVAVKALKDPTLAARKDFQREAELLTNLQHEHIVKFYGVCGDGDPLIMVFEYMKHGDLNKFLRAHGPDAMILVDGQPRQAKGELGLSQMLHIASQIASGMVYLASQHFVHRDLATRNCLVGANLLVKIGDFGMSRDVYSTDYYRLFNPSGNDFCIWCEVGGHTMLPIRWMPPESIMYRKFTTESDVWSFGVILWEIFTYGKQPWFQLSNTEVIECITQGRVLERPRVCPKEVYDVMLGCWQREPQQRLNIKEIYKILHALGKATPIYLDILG

T1 sequence (P16591 whole entry): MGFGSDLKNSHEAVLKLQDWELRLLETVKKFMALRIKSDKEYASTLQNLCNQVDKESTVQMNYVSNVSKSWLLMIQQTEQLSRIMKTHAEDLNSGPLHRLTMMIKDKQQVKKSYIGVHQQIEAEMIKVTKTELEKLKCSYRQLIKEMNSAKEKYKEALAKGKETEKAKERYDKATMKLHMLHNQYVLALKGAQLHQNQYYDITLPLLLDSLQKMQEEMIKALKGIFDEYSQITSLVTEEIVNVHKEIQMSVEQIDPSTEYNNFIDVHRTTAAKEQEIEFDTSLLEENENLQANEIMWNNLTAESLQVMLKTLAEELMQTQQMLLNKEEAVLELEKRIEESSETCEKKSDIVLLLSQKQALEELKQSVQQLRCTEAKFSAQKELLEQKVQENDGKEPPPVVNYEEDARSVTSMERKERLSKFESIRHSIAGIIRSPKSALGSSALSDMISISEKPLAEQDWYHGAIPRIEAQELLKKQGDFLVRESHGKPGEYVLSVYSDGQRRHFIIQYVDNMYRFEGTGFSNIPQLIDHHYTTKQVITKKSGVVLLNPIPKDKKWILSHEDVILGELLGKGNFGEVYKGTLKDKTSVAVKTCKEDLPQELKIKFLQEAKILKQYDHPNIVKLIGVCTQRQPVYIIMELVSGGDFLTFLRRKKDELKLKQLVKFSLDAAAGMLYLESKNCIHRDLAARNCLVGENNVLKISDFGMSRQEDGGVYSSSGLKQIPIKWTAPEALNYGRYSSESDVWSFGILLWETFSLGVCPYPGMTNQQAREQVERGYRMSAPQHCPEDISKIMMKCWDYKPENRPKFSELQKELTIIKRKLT

Compound	Percent control (FER) [%]	Percent control (TYRO3) [%]	Percent control (CSK) [%]	Percent control (DDR2) [%]	Percent control (FLT3(N841I); FLT3(N841I), 10 μM) [%]	Percent control (TRKC) [%]	remaining binding at 10 µM (FER; read-out: Percent control) [%]	remaining binding at 10 µM (TYRO3; read-out: Percent control) [%]	Percent control (FLT3(N841I))
Cc1ccc(NC(=O)c2ccc(CN3CCN(C)CC3)cc2)cc1Nc1nccc(-c2cccnc2)[n+]1[Pt-2]1([Cl])[NH2+]C2CCCCC2[NH2+]1 (stereo not shown) [1b, oxaliplatin-imatinib]	89	80	100	10	72	100	–	–	–
COc1cc2c(Nc3ccc(Br)cc3F)ncnc2cc1OCC1CCN(C)CC1 [Vandetanib, reference compound]	–	–	–	–	–	–	100	0.9	–
COc1cc2c(Nc3ccc(Br)cc3F)[n+]([Pt-2]3([Cl])[NH2+]C4CCCCC4[NH2+]3)cnc2cc1OCC1CCN(C)CC1 (stereo not shown) [3b, oxaliplatin-vandetanib]	90	0	41	0.21	–	98	–	–	18
C#Cc1cccc(Nc2c3cc(OCCOC)c(OCCOC)cc3nc[n+]2[Pt@SP2-2]([NH3+])([NH3+])[Cl])c1 [2a, cisplatin-erlotinib]	95	85	100	100	–	93	–	–	70
Cc1ccc(NC(=O)c2ccc(CN3CCN(C)CC3)cc2)cc1Nc1nccc(-c2cccnc2)n1 [Imatinib, reference compound]	100	100	–	0.1	100	100	–	–	–
